Target: T1, cortical CCK receptor (Cavia porcellus, UniProt H0VZC5)
T1 construct: Cortical and pancreatic membranes were prepared as described; from tissue; host or cells: guinea pig cerebral cortex membranes
T1 sequence (H0VZC5 1-426): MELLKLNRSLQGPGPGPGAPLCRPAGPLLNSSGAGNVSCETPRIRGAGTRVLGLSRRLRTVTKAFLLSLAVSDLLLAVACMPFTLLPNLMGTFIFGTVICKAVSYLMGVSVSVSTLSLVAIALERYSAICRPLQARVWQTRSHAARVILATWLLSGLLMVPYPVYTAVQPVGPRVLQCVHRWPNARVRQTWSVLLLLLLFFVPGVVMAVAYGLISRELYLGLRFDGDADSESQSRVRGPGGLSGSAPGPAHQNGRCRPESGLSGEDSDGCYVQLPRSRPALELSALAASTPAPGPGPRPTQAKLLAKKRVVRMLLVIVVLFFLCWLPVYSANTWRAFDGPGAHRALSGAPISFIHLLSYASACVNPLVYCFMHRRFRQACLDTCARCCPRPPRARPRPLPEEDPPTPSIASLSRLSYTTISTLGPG
Test: Radioligand binding ([125I]Bolton-Hunter CCK8) in guinea pig cerebral cortical membranes
Conditions: displacement of [125I]BH-CCK8, cortical membranes, 30°C for 150 min, Hill analysis; read-out: IC₅₀ (nM) cortex
Source text: Protocol for Radioligand Binding Experiments in Guinea Pig Cerebral Cortical and Pancreatic Membrance Preparations
CCK8 (Asp-Tyr(SO₃H)-Met-Gly-Trp-Met-Asp-Phe-NH₂), bestatin and phosphormaidon were purchased from Peptide International (Louisville, KY). EGTA, HEPES, BSA were purchased from Sigma Chemical Co. (St. Louis, MO). [¹²⁵I]-Bolton-Hunter CCK8 (BH-CCK8) (specific activity, 2200 Ci, mmol) was obtained from New England Nuclear (Boston, MA). Male ginea pigs, 250 to 325 g, were obtained from Scientific Small Animal Laboratory and Farm (Arlington Heights, IL). Collangenase, code CLSPA was purchased from Worthington (Frehold, NJ).
Cortical and pancreatic membranes were prepared as described (Lin and Miller; J. Pharmacol. Exp. Ther. 232, 775-780, 1985). In brief, pancreas and cortex were removed and rinsed with ice-cold saline. Visible fat and connective tissues were removed from the pancreas. Tissues were weighed and homogenized in approximately 25 mL of ice-cold 50 mM Tris-HCl buffer, pH 7.4 at 4°C with a Brinkman Polytron for 30 sec, setting 7. The homogenates were centrifuged for 10 min at 1075 x g and the pellet was discarded. The supernantants were saved and centrifuged at 38,730 x g for 20 min. The resultant pellets were rehomogenized in 25 mL of 50 mM Tris-HCl buffer with a Teflon-glass homogenizer, 5 up and down strokes. The homogenates were centrifuged again at 38,730 x g for 20 min. The pellets were then resuspended in 20 mM HEPES, containing 1 mM EGTA, 118 mM NaCl, 4.7 mM KCl, 5mM MgCl₂, 100 uM bestatin, 3 uM phosphoramidon, pH 7.4 at 22°C with a Teflon-glass homogenizer, 15 up and down strokes. The resuspension volume used for the cortex was 15 mL per g of original wet weight and 60 mL per g for pancreas.
[¹²⁵I]Bolton-Hunter CCK8 and test compounds were diluted with HEPES-EGTA-salt buffer (see above) containing 0.5% bovine serum albumin (BSA). To 1 mL Skatron polystyrene tubes were added 25 uL of test compounds, 25 uL of [¹²⁵I]BH-CCK8 and 200 uL of membrane suspension. The final BSA concentration was 0.1%. The cortical tissues were incubated at 30°C for 150 min. and pancreatic tissues were incubated at 37°C for 150 min. Incubations were terminated by filtration using Skatron Cell Harvester and SS32 microfiber filter mats. The specific binding of [¹²⁵I]BH-CCK8, defined as the difference betwen binding in the absence and presence of 1 uM CCK8, was 85-90% of total binding in cortex and 90-95% in pancreas. IC₅₀s were determined from the Hill analysis.

IC50: 0.7 nM
Compound: CCC[C@H]1CCN(C(=O)[C@@H]2Cc3c[nH]c4cccc(c34)CC(=O)N2)[C@@H]1C(=O)N[C@@H](CC(=O)O)C(=O)N[C@@H](Cc1ccccc1)C(N)=O [Example 48, Ctp-Tpp-Asp-Phe-NH₂]

Reference: EP0405506A1, “Tetrapeptide type-B CCK receptor ligands” (ABBOTT LABORATORIES, priority 1989, dated 1991)
